US12653860B2, “Compositions and methods for editing beta-globin for treatment of hemaglobinopathies” (Vertex Pharmaceuticals Incorporated, priority 2019, dated 2026)

What was measured:
Format in all cases: cell-based
[1] = system: PBMCs from a human donor with sickle cell disease; experiment: Hemoglobin expression by HPLC in edited patient-derived PBMCs; conditions: compared to mock EP control cells, FIG. 34
Experimental: It was further evaluated if editing of patient-derived PBMCs in the presence of i53 would yield high levels of correction of the HBB gene. […] The PBMCs were expanded in StemSpan SFEM II (1×)+StemSpan CC100 (1×)+Dexamethasone […]+hEPO 2IU/mL at 37° C. under normoxic conditions (20% O2 concentration). The cells were edited following five days of in vitro culture. […] On day 8, the cells were transferred to Phase 1 media, and differentiation to erythrocytes was performed through day 18 as described above. Efficiency of HDR at the HBB gene locus was evaluated on day 12 using the NGS assay described in Example 4. Also evaluated was the frequency of INDELs at the R02 cut-site as measured by NGS.
Hemoglobin expression was measured by HPLC analysis for edited PBMCs as described above.

[2] = system: HBB gene in CD34-expressing LT-HSPCs derived from human patients with sickle cell disease; experiment: Correction of sickle mutation (E6V to E6) by HDR in SCD patient-derived LT-HSPCs, NGS; design: dose or concentration left out as unconfirmed; conditions: R02 RNP+AAV.323 + i53 mRNA; FIG. 30A, 32B
From the text: The AAV-encoded homology donor used for correction is referred to as “AAV.323” and is identified by sequence in Table 8.

[3] = system: CD34-expressing LT-HSPCs from a human donor with sickle cell disease; experiment: Hemoglobin expression (HbS, HbA) by HPLC in edited differentiated patient LT-HSPCs; conditions: FIG. 32B
Experimental: Hemoglobin expressed by edited cells that were differentiated to erythrocytes was assessed. Hemoglobin A (HbA) is composed of 2 alpha-globin and 2 beta-globin units and is the dominant hemoglobin in adult humans. In human carriers of the HBB E6V mutation, a high proportion of total hemoglobin is hemoglobin S (HbS), which is composed of 2 alpha-globin units and 2 beta-globin units with E6V.
Briefly, on day 18 post-editing, 1×10^6 cells were harvested, centrifuged, and washed with PBS. The cells were prepared for HPLC analysis. Hemoglobin variants were quantified in cell samples using reverse-phase HPLC chromatography and gradient elution. […] Thus, high levels of HDR achieved with i53 contribute to normalization of hemoglobin expression products.

With “i53: polypeptide inhibitor of 53BP1 (SEQ ID NO: 70), delivered as mRNA (ORF SEQ ID NO: 69)” the “expression of HbA” value [1] was “increased expression of HbA”, the “expression of HbS” value [1] was “significant reduction in expression of HbS” and the “incorporation of the E6V→E6 gene correction by HDR” value [2] was 66%. For the same substance, the “decrease in HbS levels relative to mock EP control cells” value [3] was 90%.
